From patent publication US8486962B2, “Antifungal agents” (F2G Ltd., priority 2005, dated 2013)
≈ marks a conversion by molar mass, not a printed value. Where two headings read alike, the source gives them in different places.

Tests used:
[1] = system: Aspergillus fumigatus AF293; assay: MIC, YAG medium, Aspergillus fumigatus AF293; assay type: cell-based; details: Aspergillus fumigatus
Method in brief: (§1)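 Broth microdilution over doubling dilutions (50-0.05 mg/L). C. albicans in RPMI with 2% glucose and 0.135M MOPS (pH7.0), 1-2×10^3 cfu/ml, 24-48 hrs at 35° C; MIC = >80% growth inhibition by OD485. Aspergillus spp. in YAG (1% glucose, 1% ammonium chloride, 0.5% yeast extract), 1-2×10^4 cfu/ml, 24 hrs, >70% inhibition.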

[2] = system: Aspergillus fumigatus AF210; assay: MIC, YAG medium, Aspergillus fumigatus AF210; assay type: cell-based; details: Aspergillus fumigatus
Method in brief: as §1

[3] = system: Aspergillus niger; assay: MIC, YAG medium, Aspergillus niger; assay type: cell-based; details: Aspergillus niger, read-out: MIC A Niger 1
Method in brief: as §1

[4] = system: Aspergillus flavus; assay: MIC, YAG medium, Aspergillus flavus; assay type: cell-based; details: Aspergillus flavus, read-out: MIC A Flavus 01
Method in brief: as §1

[5] = system: Aspergillus terreus; assay: MIC, YAG medium, Aspergillus terreus; assay type: cell-based; details: Aspergillus terreus, read-out: MIC A Terreus 4
Method in brief: as §1

[6] = system: A Terreus 49; assay: MIC, YAG medium, A Terreus 49; assay type: cell-based, Aspergillus terreus; details: Aspergillus terreus, read-out: MIC A Terreus 49
Method in brief: as §1

[7] = AF293, YAG medium, read-out: MIC A Fum. 293
[8] = AF210, YAG medium, read-out: MIC A Fum. 210

Compound: CN1CCc2cc(NC(=O)C(=O)c3c(-c4ccccc4)cc4ccccn34)ccc21 [Example 261, N-(1-Methyl-2,3-dihydro-1H-indol-5-yl)-2-oxo-2-(2-phenyl-indolizin-3-yl)-acetamide]
- MIC [1, 7]: 0.03 µg/mL (≈ 0.0759 µM)
- MIC [2, 8]: 0.03 µg/mL (≈ 0.0759 µM)
- MIC ([3]; YAG medium): 0.06 µg/mL (≈ 0.152 µM)
- MIC ([4]; YAG medium): 0.004 µg/mL (≈ 0.0101 µM)
- MIC ([5]; YAG medium): 0.004 µg/mL (≈ 0.0101 µM)
- MIC ([6]; YAG medium): 0.001 µg/mL (≈ 0.00253 µM)

Compound: CN1CCN(c2ccc(NC(=O)C(=O)c3c(-c4ccccc4)cc4ccccn34)cc2)CC1 [Example 262, N-[4-(4-Methyl-piperazin-1-yl)-phenyl]-2-oxo-2-(2-phenyl-indolizin-3-yl)-acetamide]
- MIC [1, 7]: 1.6 µg/mL (≈ 3.65 µM)
- MIC [2, 8]: 1.6 µg/mL (≈ 3.65 µM)
- MIC ([3]; YAG medium): 6.25 µg/mL (≈ 14.3 µM)
- MIC ([4]; YAG medium): 1.6 µg/mL (≈ 3.65 µM)
- MIC ([5]; YAG medium): 1.6 µg/mL (≈ 3.65 µM)
- MIC ([6]; YAG medium): 1.6 µg/mL (≈ 3.65 µM)

Compound: CN(Cc1ccccc1)C(=O)c1cccc(NC(=O)C(=O)c2c(-c3ccccc3)cc3ccccn23)c1 [Example 263, N-Benzyl-N-methyl-3-[2-oxo-2-(2-phenyl-indolizin-3-yl)-acetylamino]-benzamide]
- MIC [1, 7]: 0.4 µg/mL (≈ 0.82 µM)
- MIC [2, 8]: 0.4 µg/mL (≈ 0.82 µM)
- MIC ([3]; YAG medium): 0.8 µg/mL (≈ 1.64 µM)
- MIC ([4]; YAG medium): 0.05 µg/mL (≈ 0.103 µM)
- MIC ([5]; YAG medium): 0.2 µg/mL (≈ 0.41 µM)
- MIC ([6]; YAG medium): 0.1 µg/mL (≈ 0.205 µM)

Compound: CC1(c2ccc(NC(=O)C(=O)c3c(-c4ccccc4)cc4ccccn34)cc2)OCCO1 [Example 264, N-[4-(2-Methyl-[1,3]dioxolan-2-yl)-phenyl]-2-oxo-2-(2-phenyl-indolizin-3-yl)-acetamide]
- MIC [1, 7]: 0.05 µg/mL (≈ 0.117 µM)
- MIC [2, 8]: 0.05 µg/mL (≈ 0.117 µM)
- MIC ([3]; YAG medium): 0.05 µg/mL (≈ 0.117 µM)
- MIC ([4]; YAG medium): 0.05 µg/mL (≈ 0.117 µM)
- MIC ([5]; YAG medium): 0.015 µg/mL (≈ 0.0352 µM)
- MIC ([6]; YAG medium): 0.008 µg/mL (≈ 0.0188 µM)

Compound: O=C(Nc1ccc(F)cc1F)C(=O)c1c(-c2ccc(F)cc2F)cc2ccccn12 [Example 265, N-(2,4-Difluoro-phenyl)-2-[2-(2,4-difluoro-phenyl)-indolizin-3-yl]-2-oxo-acetamide]
- MIC [1, 7]: > 50 µg/mL
- MIC [2, 8]: > 50 µg/mL
- MIC ([3]; YAG medium): 0.008 µg/mL (≈ 0.0194 µM)
- MIC ([4]; YAG medium): 0.1 µg/mL (≈ 0.243 µM)
- MIC ([5]; YAG medium): 0.015 µg/mL (≈ 0.0364 µM)
- MIC ([6]; YAG medium): 0.06 µg/mL (≈ 0.146 µM)

Compound: CCN(CC)C(=O)Oc1cccc(NC(=O)C(=O)c2c(-c3ccccc3)cc3ccccn23)c1 [Example 266, Diethyl-carbamic acid 3-[2-oxo-2-(2-phenyl-indolizin-3-yl)-acetylamino]-phenyl ester]
- MIC ([1]; AF293, read-out: MIC A Fum. 293): 0.8 µg/mL (≈ 1.76 µM)
- MIC ([2]; AF210, read-out: MIC A Fum. 210): 1.6 µg/mL (≈ 3.51 µM)
- MIC [3]: 6.25 µg/mL (≈ 13.7 µM)
- MIC [4]: 0.2 µg/mL (≈ 0.439 µM)
- MIC [5]: 0.2 µg/mL (≈ 0.439 µM)
- MIC [6]: 0.2 µg/mL (≈ 0.439 µM)

Compound: CC(=O)c1cccc(NC(=O)C(=O)c2c(-c3ccccc3)cc3ccccn23)c1 [Example 267, N-(3-Acetyl-phenyl)-2-oxo-2-(2-phenyl-indolizin-3-yl)-acetamide]
- MIC [1, 7]: 0.4 µg/mL (≈ 1.05 µM)
- MIC [2, 8]: 0.8 µg/mL (≈ 2.09 µM)
- MIC ([3]; YAG medium): 0.4 µg/mL (≈ 1.05 µM)
- MIC ([4]; YAG medium): 0.05 µg/mL (≈ 0.131 µM)
- MIC ([5]; YAG medium): 0.1 µg/mL (≈ 0.261 µM)
- MIC ([6]; YAG medium): 0.05 µg/mL (≈ 0.131 µM)

Compound: O=C(Nc1ccc(-c2ncco2)cc1)C(=O)c1c(-c2ccccc2)cc2ccccn12 [Example 268, N-(4-Oxazol-2-yl-phenyl)-2-oxo-2-(2-phenyl-indolizin-3-yl)-acetamide]
- MIC [1, 7]: 0.1 µg/mL (≈ 0.245 µM)
- MIC [2, 8]: 0.06 µg/mL (≈ 0.147 µM)
- MIC ([3]; YAG medium): 0.015 µg/mL (≈ 0.0368 µM)
- MIC ([4]; YAG medium): 0.03 µg/mL (≈ 0.0736 µM)
- MIC ([5]; YAG medium): 0.015 µg/mL (≈ 0.0368 µM)
- MIC ([6]; YAG medium): 0.015 µg/mL (≈ 0.0368 µM)

Compound: COc1ccccc1-c1cc2ccccn2c1C(=O)C(=O)Nc1ccc(F)cc1F [Example 269, N-(2,4-Difluoro-phenyl)-2-[2-(2-methoxy-phenyl)-indolizin-3-yl]-2-oxo-acetamide]
- MIC [1, 7]: 1.6 µg/mL (≈ 3.94 µM)
- MIC [2, 8]: 1.6 µg/mL (≈ 3.94 µM)
- MIC ([3]; YAG medium): 0.1 µg/mL (≈ 0.246 µM)
- MIC ([4]; YAG medium): 0.2 µg/mL (≈ 0.492 µM)
- MIC ([5]; YAG medium): 0.2 µg/mL (≈ 0.492 µM)
- MIC ([6]; YAG medium): 0.2 µg/mL (≈ 0.492 µM)

Compound: Cc1cc(NC(=O)C(=O)c2c(-c3ccccc3)cc3ccccn23)ccc1N(C)C [Example 273, N-(4-Dimethylamino-3-methyl-phenyl)-2-oxo-2-(2-phenyl-indolizin-3-yl)-acetamide]
- MIC [1, 7]: 0.062 µg/mL (≈ 0.156 µM)
- MIC [2, 8]: 0.031 µg/mL (≈ 0.078 µM)
- MIC ([3]; YAG medium): 0.12 µg/mL (≈ 0.302 µM)
- MIC ([4]; YAG medium): 0.004 µg/mL (≈ 0.0101 µM)
- MIC ([5]; YAG medium): 0.004 µg/mL (≈ 0.0101 µM)
- MIC ([6]; YAG medium): 0.002 µg/mL (≈ 0.00503 µM)
